Measurements as given in patent US20250221966A1, “RXFP1 AGONISTS” (BRISTOL-MYERS SQUIBB COMPANY, priority 2021, published 2025).

Target: T1, human RXFP1 (Homo sapiens, UniProt Q9HBX9)
T1 construct: expressed in transfected cells
T1 sequence (Q9HBX9 1-757): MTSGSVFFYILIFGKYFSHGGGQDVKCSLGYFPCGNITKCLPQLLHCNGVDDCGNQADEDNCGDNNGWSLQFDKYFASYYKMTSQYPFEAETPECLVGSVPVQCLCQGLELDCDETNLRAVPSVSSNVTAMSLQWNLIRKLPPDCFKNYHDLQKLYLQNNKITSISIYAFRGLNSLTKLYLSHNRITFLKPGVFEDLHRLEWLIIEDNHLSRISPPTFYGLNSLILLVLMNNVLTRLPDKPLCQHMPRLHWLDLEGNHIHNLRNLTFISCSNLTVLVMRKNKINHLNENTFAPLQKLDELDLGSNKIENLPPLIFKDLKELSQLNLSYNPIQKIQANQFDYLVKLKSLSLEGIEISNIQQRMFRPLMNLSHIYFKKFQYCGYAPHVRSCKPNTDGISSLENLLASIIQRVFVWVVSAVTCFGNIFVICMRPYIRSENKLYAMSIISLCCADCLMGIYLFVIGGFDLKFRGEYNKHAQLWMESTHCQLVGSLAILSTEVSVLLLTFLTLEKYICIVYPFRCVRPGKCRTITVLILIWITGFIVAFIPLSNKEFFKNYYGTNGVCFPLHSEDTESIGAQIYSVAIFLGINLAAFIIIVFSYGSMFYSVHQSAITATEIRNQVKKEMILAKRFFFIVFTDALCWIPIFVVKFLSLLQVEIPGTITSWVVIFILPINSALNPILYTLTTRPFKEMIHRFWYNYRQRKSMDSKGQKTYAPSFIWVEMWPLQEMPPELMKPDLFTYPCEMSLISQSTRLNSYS
Assay: RXFP1 cAMP assay (hRXFP1 HEK293 cAMP assay, HTRF)
Assay type: cell-based
Settings: HEK293 cells stably expressing human RXFP1, 30 min at room temperature, read-out: cAMP hRXFP1 HEK293 Assay EC50
Summary of the method: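 HEK293 cells stably expressing human RXFP1 were suspended in HBSS (Ca/Mg) with 20 mM HEPES, 0.05% BSA and 0.5 mM IBMX, then treated with compounds (0.010 nM–50 μM, 2% DMSO final) for 30 min at room temperature. Intracellular cAMP was measured by HTRF, and potency was derived from 4-parameter logistic fits.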

Row | SMILES | EC50 [nM]
1 | COc1ccc(-c2cc(C(NC(C)=O)C(=O)O)ccc2F)cc1C(=O)N[C@@H]1C2CCC(/C2=C/C2CC2)[C@@H]1C(=O)Nc1ccc(F)c(C(F)(F)F)c1 (some centres unmarked) [Example 182] | 5
2 | COc1ccc(-c2cccc(CC(F)(F)F)c2)cc1C(=O)N[C@@H]1C2CCC(/C2=C/C2CC2)[C@@H]1C(=O)Nc1ccc(F)c(C(F)(F)F)c1 (some centres unmarked) [compound 287] | 7
3 | COc1ccc(C2=CCCNC2)cc1C(=O)N[C@@H]1C2CCC(C2=C(C)C)[C@@H]1C(=O)Nc1ccc(F)c(C(F)(F)F)c1 (some centres unmarked) [Example 140] | 700
4 | COc1ccc(-c2cc(C(OC(=O)Nc3ccc(Cl)cc3)C(F)(F)F)ccc2F)cc1C(=O)N[C@@H]1C2CCC(/C2=C/C2CC2)[C@@H]1C(=O)Nc1ccc(F)c(C(F)(F)F)c1 (some centres unmarked) [compound 227] | 3
5 | COc1ccc(C2=NOC3CN(CCO)CC23)cc1C(=O)N[C@H]1[C@@H](C(=O)Nc2ccc(F)c(C(F)(F)F)c2)[C@H]2CC[C@@H]1/C2=C\C1CC1 (single isomer, unassigned) [compound 455] | 2
6 | COc1ccc(C2=NOC3COCC23)cc1C(=O)N[C@H]1[C@@H](C(=O)NC(C)(C)C)[C@H]2CC[C@@H]1/C2=C\C1CC1 (some centres unmarked) [compound 545] | 31.5
7 | COc1ccc(F)cc1C(=O)N[C@@H]1C2CCC(C2=C(C)C)[C@@H]1C(=O)Nc1ccc(F)c(C(F)(F)F)c1 (some centres unmarked) [compound 111] | 860
8 | COc1cc(F)c(F)cc1C(=O)N[C@@H]1C2CCC(/C2=C/c2cccnc2)[C@@H]1C(=O)Nc1ccc(F)c(C(F)(F)F)c1 (some centres unmarked) [compound 22] | 700
9 | COc1ccc(-c2cc(C(=O)NS(=O)(=O)c3ccccc3)ccc2F)cc1C(=O)N[C@@H]1C2CCC(C2=C(C)C)[C@@H]1C(=O)Nc1ccc(F)c(C(F)(F)F)c1 (some centres unmarked) [Example 150] | 190
10 | COc1ccc(-c2cc(C(F)(F)F)ccc2F)cc1C(=O)N[C@@H]1C2CCC(/C2=C/C2CC2)[C@@H]1C(=O)Nc1ccc(F)c(C(F)(F)F)c1 (some centres unmarked) [compound 286] | 5
11 | COc1ccc(-c2cc(C(OC(=O)NC3CC4(CC4)C3)C(F)(F)F)ccc2F)cc1C(=O)N[C@@H]1C2CCC(/C2=C/C2CC2)[C@@H]1C(=O)Nc1ccc(F)c(C(F)(F)F)c1 (some centres unmarked) [compound 215] | 2
12 | COc1ccc(-c2cc(-c3nnn[nH]3)ccc2F)cc1C(=O)N[C@@H]1C2CCC(/C2=C/c2ccccc2)[C@@H]1C(=O)Nc1ccc(F)c(C(F)(F)F)c1 (some centres unmarked) [compound 152] | 8
13 | COc1cc(F)c(F)cc1C(=O)N[C@@H]1C2CCC(/C2=C/c2cccc(OCC(F)(F)F)c2)[C@@H]1C(=O)Nc1ccc(F)c(C(F)(F)F)c1 (some centres unmarked) [compound 28] | 400
14 | COc1ccc(-c2cc(C(=O)NC(C)C)ccc2F)cc1C(=O)N[C@@H]1C2CCC(C2=C(C)C)[C@@H]1C(=O)Nc1ccc(F)c(C(F)(F)F)c1 (some centres unmarked) [compound 153] | 140
15 | COc1ccc(-c2cc(C(NC(=O)C3CCOCC3)C(=O)O)ccc2F)cc1C(=O)N[C@H]1[C@@H](C(=O)Nc2ccc(F)c(C(F)(F)F)c2)[C@H]2CC[C@@H]1/C2=C\C1CC1 (stereo partly drawn) [Example 238, 2-(3′-(((1R,2R,3S,4R,Z)-7-(cyclopropylmethylene)-3-((4-fluoro-3-(trifluoromethyl)phenyl)carbamoyl)bicyclo[2.2.1]heptan-2-yl)carbamoyl)-6-fluoro-4′-methoxy-[1,1′-biphenyl]-3-yl)-2-(tetrahydro-2H-pyran-4-carboxamido)acetic acid] | 1
16 | COc1ccc(-c2cc(C(NC(C)=O)C(=O)O)ccc2F)cc1C(=O)N[C@@H]1C2CCC(/C2=C/C2CC2)[C@@H]1C(=O)Nc1ccc(F)c(C(F)(F)F)c1 (some centres unmarked) [compound 184] | 11
17 | COc1ccc(-c2cc(C(=O)O)ccc2F)cc1C(=O)N[C@@H]1C2CCC(/C2=C/c2ccoc2)[C@@H]1C(=O)Nc1ccc(F)c(C(F)(F)F)c1 (some centres unmarked) [compound 159] | 21
18 | COc1cc(F)c(F)cc1C(=O)N[C@@H]1C2CCC(/C2=C/c2cnn(C)c2)[C@@H]1C(=O)Nc1ccc(F)c(C(F)(F)F)c1 (some centres unmarked) [compound 66] | 1700
19 | COc1ccc(C2=NO[C@H]3[C@@H]2[C@@H](O)C[C@H]3O)cc1C(=O)N[C@H]1[C@@H](C(=O)Nc2ccc(F)c(C(F)(F)F)c2)[C@H]2CC[C@@H]1/C2=C\C1CC1 (single isomer, unassigned) [compound 539] | 29.3
20 | COc1ccc(C2=NOC3CC(C(N)=O)CC23)cc1C(=O)N[C@H]1[C@@H](C(=O)Nc2ccc(F)c(C(F)(F)F)c2)[C@H]2CC[C@@H]1/C2=C\C(F)(F)F (single isomer, unassigned) [compound 482] | 6.8
21 | COc1ccc(C2=NOC3CS(=O)(=O)CC23)cc1C(=O)N[C@@H]1C2CCC(/C2=C/C2CC2)[C@@H]1C(=O)Nc1ccc(F)c(C(F)(F)F)c1 (single isomer, unassigned) [compound 443] | 5
22 | COc1ccc(-c2ccnc(C(F)F)c2)cc1C(=O)N[C@@H]1C2CCC(/C2=C/C2CC2)[C@@H]1C(=O)Nc1ccc(F)c(C(F)(F)F)c1 (some centres unmarked) [compound 284] | 109
23 | COc1cc(F)c(F)cc1C(=O)N[C@@H]1C2CCC(/C2=C/C2=CCCC2)[C@@H]1C(=O)Nc1ccc(F)c(C(F)(F)F)c1 (some centres unmarked) [compound 38] | 360
24 | COc1ccc(C2=NOC3COCC23)cc1C(=O)N[C@H]1[C@@H](C(=O)N[C@H](C)C(C)(C)C)[C@H]2CC[C@@H]1/C2=C\C1CC1 (some centres unmarked) [compound 485] | 7.8

Further lines, results first:

Row | EC50 [nM] | SMILES
25 | 32.1 | COc1ccc(C2=NOC(COCCO)C2)cc1C(=O)N[C@H]1[C@@H](C(=O)Nc2ccc(F)c(C(F)(F)F)c2)[C@H]2CC[C@@H]1/C2=C\C1CC1 (some centres unmarked) [compound 546]
26 | 416 | COc1ccc(C2=NOC3COCC23)cc1C(=O)N[C@H]1[C@@H](C(=O)NC(C)(C)c2ccccc2Cl)[C@H]2CC[C@@H]1/C2=C\C1CC1 (some centres unmarked) [compound 669]
27 | 65.3 | COc1ccc(C2=NOC(C)(CO)C2)cc1C(=O)N[C@H]1[C@@H](C(=O)Nc2ccc(F)c(C(F)(F)F)c2)[C@H]2CC[C@@H]1C2=CC1CC1 (single isomer, unassigned) [compound 571]
28 | 1 | COc1ccc(-c2ccc(C3=NOC(CO)C3)cc2F)cc1C(=O)N[C@@H]1C2CCC(/C2=C/C2CCCC2)[C@@H]1C(=O)Nc1ccc(F)c(C(F)(F)F)c1 (some centres unmarked) [compound 897]
29 | 99 | COc1ccc(C2CC3CNS(=O)(=O)C32)cc1C(=O)N[C@H]1[C@@H](C(=O)Nc2ccc(F)c(C(F)(F)F)c2)[C@H]2CC[C@@H]1/C2=C\C1CC1 (single isomer, unassigned) [compound 732]
30 | 2.7 | COc1ccc(-c2cc(C(C)CC(=O)O)ccc2F)cc1C(=O)N[C@H]1[C@@H](C(=O)Nc2ccc(F)c(C(F)(F)F)c2)[C@H]2CC[C@@H]1/C2=C\C1CC1 (some centres unmarked) [compound 888]
31 | 3.7 | COc1ccc(C2=NOC3CC(OC)CC23)cc1C(=O)N[C@@H]1C2CCC(/C2=C/C2CC2)[C@@H]1C(=O)Nc1ccc(F)c(C(F)(F)F)c1 (some centres unmarked) [compound 867]
32 | 4.9 | CC(F)(F)COc1ccc(C2=NOC3COCC23)cc1C(=O)N[C@@H]1C2CCC(/C2=C/C2CC2)[C@@H]1C(=O)Nc1ccc(F)c(C(F)(F)F)c1 (some centres unmarked) [compound 790]
33 | 132 | COc1ccc(C2=NOC3COCC23)cc1C(=O)N[C@H]1[C@@H](C(=O)NC2Cc3ccccc3C2)[C@H]2CC[C@@H]1/C2=C\C1CC1 (some centres unmarked) [compound 610]
34 | 0.4 | COc1c(F)cc(C2=NOC3CC(CO)CC23)cc1C(=O)N[C@H]1[C@@H](C(=O)N[C@H](C)C2(C)CC2(F)F)[C@H]2CC[C@@H]1/C2=C\C1CC1 (some centres unmarked) [compound 756]
35 | 1.3 | COc1ccc(-c2cc(C(NC(=O)C3CCOCC3)C(=O)O)ccc2F)cc1C(=O)N[C@H]1[C@@H](C(=O)Nc2ccc(F)c(C(F)(F)F)c2)[C@H]2CC[C@@H]1/C2=C\C(C)C (some centres unmarked) [compound 942]
36 | 36.7 | COc1ccc(C2=NOC3COCC23)cc1C(=O)N[C@H]1[C@@H](C(=O)NC2CCCCC2)[C@H]2CC[C@@H]1/C2=C\C1CC1 (some centres unmarked) [compound 552]
37 | 23 | COc1ccc(C2CC3CN(CCCO)C(=O)C32)cc1C(=O)N[C@H]1[C@@H](C(=O)Nc2ccc(F)c(C(F)(F)F)c2)[C@H]2CC[C@@H]1/C2=C\C1CC1 (single isomer, unassigned) [compound 734]
38 | 59.4 | COc1ccc(C2CCN(CC(C)(C)O)C2)cc1C(=O)N[C@@H]1C2CCC(C2=CC2CC2)[C@@H]1C(=O)Nc1ccc(F)c(C(F)(F)F)c1 (some centres unmarked) [compound 568]
39 | 3.5 | COc1ccc(-c2ncc(CO)s2)cc1C(=O)N[C@H]1[C@@H](C(=O)Nc2ccc(F)c(C(F)(F)F)c2)[C@H]2CC[C@@H]1/C2=C\C1CCCC1 [compound 750]
40 | 110 | COc1cc(C(=O)N[C@H]2[C@@H](C(=O)Nc3ccc(F)c(C(F)(F)F)c3)[C@H]3CC[C@@H]2/C3=C\C2CC2)cc(C2=NOC3COCC23)c1 (single isomer, unassigned) [compound 602]
41 | 4.9 | COc1ccc(-c2cc(C3=NOC4CC(CO)CC34)ccc2F)cc1C(=O)N[C@H]1[C@@H](C(=O)Nc2ccc(F)c(C(F)(F)F)c2)[C@H]2CC[C@@H]1/C2=C\C1CCCC1 (some centres unmarked) [compound 950]
